US9481654B2, “Compositions and methods for inhibition of the JAK pathway” (Rigel Pharmaceuticals, Inc., priority 2006, dated 2016)
pIC50: −log10 of the molar value.

What was measured:
Format in all cases: cell-based
[1] = tested on: IL-4 stimulated CD23 upregulation in human Ramos B cells (JAK-1/JAK-3, Stat-6); test: Assay for Ramos B-Cell Line Stimulated with IL-4 (CD23 upregulation, FACS); details: Table III Example 3
Summary of the method: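 Flow cytometry of CD23 staining after 20-24 h IL-4 stimulation (50 units/mL final) of human Ramos B cells in RPMI with 5% serum. Cells, 5×10^4 per point, received compound or DMSO vehicle for 1 h at 37° C prior to stimulation.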

[2] = tested on: primary human T-cells (IL-2 induced proliferation, JAK-1/JAK-3, Stat-5); test: Primary Human T-Cell Proliferation Assay Stimulated with IL-2 (CellTiter-Glo); details: Table III Example 4
Method: In this assay, primary human T-cells derived from peripheral blood and pre-activated through stimulation of the T-cell receptor and CD28, proliferate in culture in response to the cytokine Interleukin-2 (IL-2). This proliferative response is dependent on the activation of JAK1 and JAK3 tyrosine kinases, which phosphorylate and activate the transcription factor Stat-5. The primary human T-cells are incubated with the 2,4-pyrimidinediamine compounds in the presence of IL-2 for 72 hours, and at the assay endpoint intracellular ATP concentrations are measured to assess cell viability. A reduction in cell proliferation compared to control conditions is indicative of inhibition of the JAK kinase pathway.
Primary human T-cells derived from peripheral blood and pre-activated through stimulation of the T-cell receptor and CD28 proliferate in vitro in response to the cytokine Interleukin-2 (IL-2). This proliferative response is dependent on the activation of JAK-1 and JAK-3 tyrosine kinases, which phosphorylate and activate the transcription factor Stat-5.
Human primary T cells were prepared as follows. […] The lymphocytes at the serum: ficoll interface were recovered and washed twice with 5 volumes of PBS. […] The primary T-cells were stimulated for 3 to 4 days, then transferred to a fresh flask and maintained in RPMI with 10% FBS and 40 U/mL IL-2.
Primary T-cells were washed twice with PBS to remove the IL-2 and resuspended in Yssel's medium at 2×10^6 cells/mL. 50 μL of cell suspension containing 80 U/mL IL-2 was added to each well of a flat bottom 96 well black plate. For the unstimulated control, IL-2 was omitted from the last column on the plate. […] 50 μL of 2× compound was added per well in duplicate and the cells were allowed to proliferate for 72 hours at 37° C.
Proliferation was measured using CellTiter-Glo® Luminescent Cell Viability Assay (Promega), which determines the number of viable cells in culture based on quantitation of the ATP present, as an indicator of metabolically active cells. The substrate was thawed and allowed to come to room temperature. After mixing the Cell Titer-Glo reagent and diluent together, 100 μL was added to each well. The plates were mixed on an orbital shaker for two minutes to induce lysis and incubated at room temperature for an additional ten minutes to allow the signal to equilibrate.

[3] = tested on: IFNγ induced ICAM-1 (CD54) up-regulation in U937 human monocytic cells (JAK/Stat pathway); test: U937 IFNγ ICAM1 FACS Assay; details: Table III Example 6; 10 ng/mL IFNγ, 18-24 hours
From the text: A549 lung epithelial cells and U937 cells up-regulate ICAM-1 (CD54) surface expression in response to a variety of different stimuli. Therefore, using ICAM-1 expression as readout, test compound effects on different signaling pathways can be assessed in the same cell type. Stimulation with IL-1β through the IL-1β receptor activates the TRAF6/NFκB pathway resulting in up-regulation of ICAM-1. IFNγ induces ICAM-1 up-regulation through activation of the JAK1/JAK2 pathway. The up-regulation of ICAM-1 can be quantified by flow cytometry across a compound dose curve and EC50 values are calculated. Exemplary assays of this type are described in greater detail in Examples 5 and 6. U937 human monocytic cells up-regulate ICAM-1 (CD54) surface expression in response to a variety of different stimuli. Therefore, using ICAM-1 expression as readout, compound effects on different signaling pathways can be assessed in the same cell type. IFNγ up-regulates ICAM-1 through activation of the JAK/Stat pathway. In this example, the up-regulation of ICAM-1 by IFNγ was assessed. […] The cells were then plated at a concentration of 100,000 cells per 160 μL in 96 well flat bottom plates. The test compounds were then diluted as follows: 10 mM test compound was diluted 1:5 in DMSO (3 μL 10 mM test compound in 12 μL DMSO), followed by a 1:3 serial dilution of test compound in DMSO (6 μL test compound serially diluted into 12 μL DMSO to give 3-fold dilutions). […] For control wells, 4 μL of DMSO was diluted into 76 μL 10% RPMI. […] The cells and compounds were then pre-incubated for 30 minutes at 37° C. with 5% CO2. […] The cells were kept under conditions for stimulation for 18-24 hours at 37° C. with 5% CO2. […] Cells were spun down at 1000 rpm for 5 minutes at 4° C., following which the supernatant was removed. […] The cells were then incubated on ice in the dark for 30 minutes. […] After suspension, the cells were centrifuged at 1000 rpm for 5 min at 4° C. […] Detection was performed using a BD LSR I System Flow Cytometer, purchased from BD Biosciences of San Jose, Calif. The live cells were gated for live scatter and the geometric mean of ICAM-APC was measured (Becton-Dickinson CellQuest software version 3.3, Franklin Lakes, N.J.). Both % live cells and ICAM-1 expression was analyzed. The assays for the test compounds were carried out in parallel with a control compound of known activity.

## CNS(=O)(=O)c1ccc(Nc2ncc(C)c(Nc3ccc(CNS(=O)(=O)C4CC4)cc3)n2)cc1 [Compound I-163, N4-(4-cyclopropylsulfonylaminomethyl)phenyl-5-methyl-N2-(4-methylaminosulfonyl)phenyl-2,4-pyrimidinediamine]
[1]
  pIC50: 7.33
[2]
  pIC50: 7.28
[3]
  pIC50: 6.84

## CCS(=O)(=O)NCc1ccc(Nc2nc(Nc3cccc(S(N)(=O)=O)c3)ncc2F)cc1Cl [Compound I-75, N2-(3-aminosulfonyl)phenyl-N4-(3-chloro-4-ethylsulfonylaminomethyl)phenyl-5-fluoro-2,4-pyrimidinediamine]
[1]
  pIC50: 6.74
[2]
  pIC50: 6.61
[3]
  pIC50: 5.92

## COCCNS(=O)(=O)c1ccc(Nc2ncc(C)c(Nc3ccc(CNS(=O)(=O)C4CC4)cc3)n2)cc1 [Compound I-183, N4-(4-cyclopropylsulfonylaminomethyl)phenyl-N2-[4-(2-methoxyethyl)aminosulfonyl]phenyl-5-methyl-2,4-pyrimidinediamine]
[1]
  pIC50: 7.18
[2]
  pIC50: 6.81
[3]
  pIC50: 6.68

## Cc1cnc(Nc2cccc(S(N)(=O)=O)c2)nc1Nc1ccc(CNS(=O)(=O)c2cccnc2)cc1 [Compound I-100, N2-(3-aminosulfonyl)phenyl-5-methyl-N4-[4-(pyrid-3-yl)sulfonylaminomethyl]phenyl-2,4-pyrimidinediamine]
[1]
  pIC50: 6.99
[2]
  pIC50: 6.82
[3]
  pIC50: 6.31

## Cc1ccc(Nc2ncc(F)c(Nc3ccc(CNS(=O)(=O)c4sc(N)nc4C)cc3)n2)cc1S(N)(=O)=O [Compound I-43, N4-[4-(2-amino-4-methylthiazol-5-yl)sulfonylaminomethyl]phenyl-N2-(3-aminosulfonyl-4-methyl)phenyl-5-fluoro-2,4-pyrimidinediamine]
[1]
  pIC50: 6.27
[2]
  pIC50: 5.75
[3]
  pIC50: 4.42

## CCS(=O)(=O)NCc1cccc(Nc2nc(Nc3ccc(S(N)(=O)=O)cc3)ncc2F)c1 [Compound I-11, N2-(4-aminosulfonyl)phenyl-N4-(3-ethylsulfonylaminomethyl)phenyl-5-fluoro-2,4-pyrimidinediamine]
[1]
  pIC50: 6.60
[2]
  pIC50: 6.23
[3]
  pIC50: 5.56

## NS(=O)(=O)c1cccc(Nc2ncc(F)c(Nc3ccc(CNS(=O)(=O)c4cccs4)cc3)n2)c1 [Compound I-36, N2-(3-aminosulfonyl)phenyl-5-fluoro-N4-[4-(thiophen-2-yl)sulfonylaminomethyl]phenyl-2,4-pyrimidinediamine]
[1]
  pIC50: 7.39
[2]
  pIC50: 7.19
[3]
  pIC50: 6.49

## CCC(=O)NS(=O)(=O)c1ccc(Nc2ncc(C)c(Nc3ccc(CNS(=O)(=O)C4CC4)cc3)n2)cc1 [Compound I-83, N4-(4-cyclopropylsulfonylaminomethyl)phenyl-5-methyl-N2-(4-propionylaminosulfonyl)phenyl-2,4-pyrimidinediamine]
[1]
  pIC50: 6.74
[2]
  pIC50: 6.82
[3]
  pIC50: 6.58

## Cc1cnc(Nc2ccc(S(N)(=O)=O)cc2)nc1Nc1cccc(CNS(=O)(=O)C2CC2)c1 [Compound I-56, N2-(4-aminosulfonyl)phenyl-N4-(3-cyclopropylsulfonylaminomethyl)phenyl-5-methyl-2,4-pyrimidinediamine]
[1]
  pIC50: 6.79
[2]
  pIC50: 6.51
[3]
  pIC50: 6.14

## NS(=O)(=O)c1ccc(Nc2ncc(F)c(Nc3ccc(CNS(=O)(=O)C4CC4)cc3)n2)cc1 [Compound I-23, N2-(4-aminosulfonyl)phenyl-N4-(4-cyclopropylsulfonylaminomethyl)phenyl-5-fluoro-2,4-pyrimidinediamine]
[1]
  pIC50: 6.90
[2]
  pIC50: 6.70
[3]
  pIC50: 5.41

## Cc1cnc(Nc2ccc(S(=O)(=O)NC3CCCC3)cc2)nc1Nc1ccc(CNS(=O)(=O)C2CC2)cc1 [Compound I-166, N2-(4-cyclopentylaminosulfonyl)phenyl-N4-(4-cyclopropylsulfonylaminomethyl)phenyl-5-methyl-2,4-pyrimidinediamine]
[1]
  pIC50: 7.08
[2]
  pIC50: 6.67
[3]
  pIC50: 6.55

## CCCN(Cc1ccc(Nc2nc(Nc3ccc(S(N)(=O)=O)cc3)ncc2C)cc1)S(=O)(=O)C1CC1 [Compound I-79, N2-(4-aminosulfonyl)phenyl-N4-[4-(N-cyclopropylsulfonyl-N-propylamino)methyl]phenyl-5-methyl-2,4-pyrimidinediamine]
[1]
  pIC50: 7.01
[2]
  pIC50: 7.03
[3]
  pIC50: 6.46

## CCS(=O)(=O)NCc1ccc(Nc2nc(Nc3ccc(C)c(S(N)(=O)=O)c3)ncc2C)cc1 [Compound I-22, N2-(3-aminosulfonyl-4-methyl)phenyl-N4-(4-ethylsulfonylaminomethyl)phenyl-5-methyl-2,4-pyrimidinediamine]
[1]
  pIC50: 7.59
[2]
  pIC50: 7.09
[3]
  pIC50: 6.68

## Cc1cnc(Nc2cccc(S(N)(=O)=O)c2)nc1Nc1ccc2c(c1)CCN(S(=O)(=O)C1CC1)C2 [II-2, N2-(3-aminosulfonyl)phenyl-N4-[(N-cyclopropylsulfonyl)-1,2,3,4-tetrahydroisoquinolin-6-yl]-5-methyl-2,4-pyrimidinediamine]
[1]
  pIC50: 8.11
[2]
  pIC50: 7.52
[3]
  pIC50: 6.97

## Cc1cnc(Nc2ccc(S(N)(=O)=O)cc2)nc1Nc1ccc2c(c1)CN(S(=O)(=O)C1CC1)C2 [II-9, N2-(4-Aminosulfonyl-phenyl)-N4-[(2-cyclopropylsulfonyl)-isoindolin-5-yl]-5-methyl-2,4-pyrimidinediamine]
[1]
  pIC50: 6.93
[2]
  pIC50: 6.56
[3]
  pIC50: 5.95

## Cc1cnc(Nc2cccc(S(=O)(=O)Nc3ccccc3)c2)nc1Nc1ccc(CNS(=O)(=O)C2CC2)cc1 [Compound I-150, N4-(4-cyclopropylsulfonylaminomethyl)phenyl-5-methyl-N2-(3-phenylaminosulfonyl)phenyl-2,4-pyrimidinediamine]
[1]
  pIC50: 7.05
[2]
  pIC50: 6.90
[3]
  pIC50: 6.25

## CCOC(=NS(=O)(=O)c1cccc(Nc2ncc(C)c(Nc3cccc(CNS(=O)(=O)C4CC4)c3)n2)c1)OCC [Compound I-128, N4-(3-cyclopropylsulfonylaminomethyl)phenyl-N2-[3-(diethoxy)carbonimidylsulfonyl]phenyl-5-methyl-2,4-pyrimidinediamine]
[1]
  pIC50: 6.80
[2]
  pIC50: 7.21
[3]
  pIC50: 6.15

## NS(=O)(=O)c1cccc(Nc2ncc(F)c(Nc3cccc(CNS(=O)(=O)C4CC4)c3)n2)c1 [Compound I-33, N2-(3-aminosulfonyl)phenyl-N4-(3-cyclopropylsulfonylaminomethyl)phenyl-5-fluoro-2,4-pyrimidinediamine]
[1]
  pIC50: 6.99
[2]
  pIC50: 6.50
[3]
  pIC50: 5.85
